What was measured:
Assay in all cases: relative viability (nuclei count vs DMSO), 5 days (fraction); higher = more cells survive
[1] = tested on: NCI-H2170
How it was run: (§1)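 Five library-drug doses in √10 steps were combined with a fixed anchor-drug dose, or a single drug was given alone, by pin tool to lung cancer cell lines in 1536-well plates the day after seeding. Nuclei were stained and counted after 5 days. Relative viability is the nuclei count in treated wells over that in vehicle wells, taken as the median of duplicate plates.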

[2] = tested on: NCI-H23
How it was run: as §1

[3] = tested on: NCI-H1975
How it was run: as §1

[4] = tested on: HOP-62
How it was run: as §1

[5] = tested on: A549
How it was run: as §1

[6] = tested on: NCI-H1299
How it was run: as §1

[7] = tested on: Calu-6
How it was run: as §1

[8] = tested on: EBC-1
How it was run: as §1

[9] = tested on: IA-LM
How it was run: as §1

[10] = tested on: NCI-H1703
How it was run: as §1

## C=C1C(=O)O[C@@H](CCCCCCCC)[C@@H]1C(=O)O [C-75] + CC(=O)c1c(C)c2cnc(Nc3ccc(N4CCNCC4)cn3)nc2n(C2CCCC2)c1=O [Palbociclib] (partner 0.5 µM)
[1]; first compound 0.08 µM
  relative viability: 0.388
[1]; first compound 0.253 µM
  relative viability: 0.406
[1]; first compound 0.8 µM
  relative viability: 0.377
[1]; first compound 2.53 µM
  relative viability: 0.319
[1]; first compound 8 µM
  relative viability: 0.424
[2]; first compound 0.08 µM
  relative viability: 0.499
[2]; first compound 0.253 µM
  relative viability: 0.582
[2]; first compound 0.8 µM
  relative viability: 0.511
[2]; first compound 2.53 µM
  relative viability: 0.467
[2]; first compound 8 µM
  relative viability: 0.42
[3]; first compound 0.08 µM
  relative viability: 0.67
[3]; first compound 0.253 µM
  relative viability: 0.433
[3]; first compound 0.8 µM
  relative viability: 0.525
[3]; first compound 2.53 µM
  relative viability: 0.484
[3]; first compound 8 µM
  relative viability: 0.581
[4]; first compound 0.08 µM
  relative viability: 0.46
[4]; first compound 0.253 µM
  relative viability: 0.431
[4]; first compound 0.8 µM
  relative viability: 0.484
[4]; first compound 2.53 µM
  relative viability: 0.361
[4]; first compound 8 µM
  relative viability: 0.413

## C=C1C(=O)O[C@@H](CCCCCCCC)[C@@H]1C(=O)O [C-75] + Nc1ncn([C@H]2C[C@H](O)[C@@H](CO)O2)c(=O)n1 [Decitabine] (partner 2 µM)
[1]; first compound 0.08 µM
  relative viability: 0.479
[1]; first compound 0.253 µM
  relative viability: 0.505
[1]; first compound 0.8 µM
  relative viability: 0.449
[1]; first compound 2.53 µM
  relative viability: 0.422
[1]; first compound 8 µM
  relative viability: 0.401
[5]; first compound 0.08 µM
  relative viability: 0.27
[5]; first compound 0.253 µM
  relative viability: 0.255
[5]; first compound 0.8 µM
  relative viability: 0.273
[5]; first compound 2.53 µM
  relative viability: 0.35
[5]; first compound 8 µM
  relative viability: 0.215
[2]; first compound 0.08 µM
  relative viability: 0.307
[2]; first compound 0.253 µM
  relative viability: 0.334
[2]; first compound 0.8 µM
  relative viability: 0.308
[2]; first compound 2.53 µM
  relative viability: 0.249
[2]; first compound 8 µM
  relative viability: 0.247
[3]; first compound 0.08 µM
  relative viability: 0.373
[3]; first compound 0.253 µM
  relative viability: 0.334
[3]; first compound 0.8 µM
  relative viability: 0.32
[3]; first compound 2.53 µM
  relative viability: 0.299
[3]; first compound 8 µM
  relative viability: 0.431
[4]; first compound 0.08 µM
  relative viability: 0.22
[4]; first compound 0.253 µM
  relative viability: 0.217
[4]; first compound 0.8 µM
  relative viability: 0.218
[4]; first compound 2.53 µM
  relative viability: 0.23
[4]; first compound 8 µM
  relative viability: 0.161

## C=C1C(=O)O[C@@H](CCCCCCCC)[C@@H]1C(=O)O [C-75] + CC1(C)CCC(c2ccc(Cl)cc2)=C(CN2CCN(c3ccc(C(=O)NS(=O)(=O)c4ccc(N[C@H](CCN5CCOCC5)CSc5ccccc5)c(S(=O)(=O)C(F)(F)F)c4)cc3)CC2)C1 [Navitoclax] (partner 0.5 µM)
[6]; first compound 0.08 µM
  relative viability: 1.07
[6]; first compound 0.253 µM
  relative viability: 1.03
[6]; first compound 0.8 µM
  relative viability: 1.05
[6]; first compound 2.53 µM
  relative viability: 1.03
[6]; first compound 8 µM
  relative viability: 1.12
[7]; first compound 0.08 µM
  relative viability: 0.819
[7]; first compound 0.253 µM
  relative viability: 0.864
[7]; first compound 0.8 µM
  relative viability: 0.786
[7]; first compound 2.53 µM
  relative viability: 0.738
[7]; first compound 8 µM
  relative viability: 0.714
[8]; first compound 0.08 µM
  relative viability: 0.389
[8]; first compound 0.253 µM
  relative viability: 0.508
[8]; first compound 0.8 µM
  relative viability: 0.306
[8]; first compound 2.53 µM
  relative viability: 0.356
[8]; first compound 8 µM
  relative viability: 0.219
[9]; first compound 0.08 µM
  relative viability: 0.754
[9]; first compound 0.253 µM
  relative viability: 0.834
[9]; first compound 0.8 µM
  relative viability: 0.819
[9]; first compound 2.53 µM
  relative viability: 0.52
[9]; first compound 8 µM
  relative viability: 0.512
[1]; first compound 0.08 µM
  relative viability: 0.71
[1]; first compound 0.253 µM
  relative viability: 0.641
[1]; first compound 0.8 µM
  relative viability: 0.556
[1]; first compound 2.53 µM
  relative viability: 0.525
[1]; first compound 8 µM
  relative viability: 0.586
[10]; first compound 0.08 µM
  relative viability: 1.15
[10]; first compound 0.253 µM
  relative viability: 1.12
[10]; first compound 0.8 µM
  relative viability: 0.817
[10]; first compound 2.53 µM
  relative viability: 1.09
[10]; first compound 8 µM
  relative viability: 0.967
[5]; first compound 0.08 µM
  relative viability: 1.12
[5]; first compound 0.253 µM
  relative viability: 1.29
[5]; first compound 0.8 µM
  relative viability: 1.18
[5]; first compound 2.53 µM
  relative viability: 0.819
[5]; first compound 8 µM
  relative viability: 1.15
[2]; first compound 0.08 µM
  relative viability: 0.801
[2]; first compound 0.253 µM
  relative viability: 1.01
[2]; first compound 0.8 µM
  relative viability: 0.666
[2]; first compound 2.53 µM
  relative viability: 0.672
[2]; first compound 8 µM
  relative viability: 0.717
[3]; first compound 0.08 µM
  relative viability: 0.983
[3]; first compound 0.253 µM
  relative viability: 1.1
[3]; first compound 0.8 µM
  relative viability: 1.12
[3]; first compound 2.53 µM
  relative viability: 1.1
[3]; first compound 8 µM
  relative viability: 1.14
[4]; first compound 0.08 µM
  relative viability: 1.02
[4]; first compound 0.253 µM
  relative viability: 1.25
[4]; first compound 0.8 µM
  relative viability: 1.04
[4]; first compound 2.53 µM
  relative viability: 0.889
[4]; first compound 8 µM
  relative viability: 0.857

Source: the supplement of paper PMC10307832
